In patent publication US7087658B2, “Water-soluble coating agents bearing initiator groups” (SurModics, Inc., priority 1999, dated 2006):

Tests used:
platelets = test: Platelet attachment and activation from platelet rich plasma (SEM); format: cell-based, human; conditions: coated polyethylene (PE); for Platelet activation, spreading and aggregation: SEM
Method: The surface-modified materials were incubated with platelet rich plasma (PRP), observed with a scanning electron microscope and photographed to determine the influence of surface chemistry on platelet attachment and activation.
Blood was collected fresh from human volunteers into 3.8% (v/v) sodium citrate solution using 9:1 ratio of blood to anticoagulant. The blood was centrifuged at 1200 rpm for 15 minutes to separate PRP from blood. The PRP was collected and kept at room temperature until used (less than 1 hour).
The test samples (½-inch circles) were placed in a 6-well plate, 1 sample per well. The PRP solution was added onto the top of the samples until the entire surface of the sample was covered, and the samples were incubated one hour at room temperature with no agitation. To quantify the platelet solution, a sample of the PRP was taken and diluted 1:100 with 1% (v/v) Oxalate Ammonium. A capillary tube was used to transfer a small amount of solution to a hemacytometer, and the sample was incubated in a covered petri dish for 30 minutes at room temperature for the platelets to settle.
The platelets were counted under a phase contrast microscope and determined to be approximately 50–100×10^9 platelets/L. After incubation, the PRP was removed carefully by aspiration and 3 mls of Tyrode's buffer (138-mM NaCl, 2.9-mM KCl, 12-mM sodium bicarbonate, pH 7.4) gently added to each well. The plates were agitated slightly on an orbital shaker for 15 minutes; the solution was changed and the wash repeated. The wash solution was aspirated and 2.0 ml of Karnovsky's fixative (25-mls formaldehyde, 5-mls 25% glutaraldehyde, 20-mls of a solution of 23% NaH2PO4—H2O, 77% NaHPO4 anhydrous) were added to each well. The plate was wrapped with parafilm and incubated overnight at room temperature with slight agitation.
The fixative was aspirated off and the samples were washed 3 times each with pure water, 15 minutes each. […] The platelets were counted and judged by degree of activation and morphology.

[1] = tested on: intrinsic and common pathways of coagulation; test: Partial thromboplastin time (PTT) test; format: biochemical
Method: A useful test in determining the hemocompatibility of a reagent is the partial thromboplastin time (PTT) test. The PTT is a test of the intrinsic (factors VIII, IX, XI, and XII) and common (fibrinogen, prothrombin, factors V and X) pathways of coagulation. A mixture of plasma and phospholipid platelet substitute (rabbit brain cephalin) is recalcified and the time required for the appearance of fibrin strands measured.
The PTT was tested to determine whether Compound I or Compound II have the ability to extend the control PTT. A test tube of rabbit brain cephalin (Sigma #RBC) in 0.85% NaCl and a test tube of 0.02 M CaCl2 was brought to 37° C. in a water bath. Dade Ci-trol coagulation control lyophilized plasma (Dade International, Inc., product no. 34224-10) was reconstituted in sterile deionized water. In 10×75 mm glass test tubes, 100 μl reconstituted plasma and 100 μl RBC were mixed and incubated at 37° C. in a water bath for 5 minutes. Next, 50 μl of sample (deionized water, a photocrosslinkable polyvinylpyrrolidone (available from SurModics, Inc., product no. PVO5), or Compound I or II) was added and mixed. While simultaneously starting a stop watch, 100 μl of 0.02 M CaCl2 was added to initiate the clotting cascade. After 40 seconds had passed, the test tubes were shaken lightly, observed for fibrin formation, and the number of seconds was recorded.
All samples were tested in duplicate. The appropriate control PTT, depending upon what solvent in which the reagent was dissolved, was subtracted from the average PTT for the reagent to give the time the control PTT was extended.

[2] = tested on: Beta-Thromboglobulin (β-TG) released from the α-granules of platelets; test: Beta-Thromboglobulin assay; format: cell-based, human; conditions: coated polyethylene; PRP, one hour at room temperature; enzyme immunoassay
Method: The surface-modified materials were incubated with PRP and the plasma was assayed for the Beta-Thromboglobulin (β-TG) released from the α-granules due to activation of the platelets. Blood was collected fresh from human volunteers into 3.8% (v/v) sodium citrate using 9:1 ratio of blood to anticoagulant. The blood was centrifuged at 1200 rpm for 15 minutes to separate PRP from blood. The PRP was collected and kept at room temperature until used (less than 1 h). The test samples (½-inch circles) were placed in a 6-well plate, 1 sample per well. The PRP solution was added onto the top of the samples until the entire surface of the sample was covered, and the samples incubated one hour at room temperature with no agitation. Control samples of plasma, for initial β-TG levels, were taken prior to incubation.
After incubation with the samples, prostaglandin E1 (Sigma, product no. P5515) was added to each sample and the plasma was assayed with an enzyme immunoassay kit (Asserachrom American Bioproduct, product no. 0250) for the amount of β-TG released.

[3] = final concentration 0.7 mg/ml, solvent H2O
[4] = final concentration 1.43 mg/ml, solvent H2O
[5] = final concentration 0.7 mg/ml, solvent 50% IPA
[6] = final concentration 1.29 mg/ml, solvent 50% IPA

Compound | Platelet activation, spreading and aggregation (platelets) | Morphology of platelets attached to modified surfaces (platelets; SEM photographs) | Average PTT [1, 3] [s] | Formed Clot [1, 3] | Time Extended Beyond Control PTT ([1]; final concentration 0.7 mg/ml, solvent H2O, DI H2O control subtracted) [s] | Average PTT [1, 4] [s] | Formed Clot [1, 4] | Time Extended Beyond Control PTT ([1]; final concentration 1.43 mg/ml, solvent H2O, DI H2O control subtracted) [s] | β-TG release [2] | Average PTT [1, 5] [s] | Formed Clot [1, 5] | Time Extended Beyond Control PTT ([1]; final concentration 0.7 mg/ml, solvent 50% IPA, 50% IPA control subtracted) [s] | Average PTT [1, 6] [s] | Formed Clot [1, 6] | Time Extended Beyond Control PTT ([1]; final concentration 1.29 mg/ml, solvent 50% IPA, 50% IPA control subtracted) [s] | Extension of the 50% IPA control PTT ([1]; higher of the two final concentrations tested, 50% IPA control) [h] | Extension of PTT from water control ([1]; higher of the two final concentrations tested, water control) [h]
O=C(c1ccccc1)c1ccc(COc2cc(S(=O)(=O)[O-])cc(S(=O)(=O)[O-])c2OCc2ccc(C(=O)c3ccccc3)cc2)cc1.[K+].[K+] [Compound I, 4,5-bis(4-benzoylphenylmethyleneoxy) benzene-1,3-disulfonic acid disodium salt] | less activation and spreading | Full coverage, many aggregates, little | 117 | yes | 64 | >3600 | no | >3600 | lower levels of β-TG release than the uncoated and PVO5 controls |  |  |  |  |  |  |  | 
O=C(c1ccccc1)c1ccc(COc2cc(S(=O)(=O)[O-])c(OCc3ccc(C(=O)c4ccccc4)cc3)cc2S(=O)(=O)[O-])cc1.[K+].[K+] [Compound II, 2,5-bis(4-benzoylphenylmethyleneoxy) benzene-1,4-disulfonic acid dipotassium salt] | some spreading pseudopodia, but little or no aggregating |  |  |  |  |  |  |  |  | 134 | yes | 56 | 3600 | yes | 3522 | 1 | ≥ 1
